The text below walks through data of publication PMC4791960 (European journal of medicinal chemistry, 2011).

In general, Ki refers to the dissociation constant of the complex between target and ligand, obtained from inhibition or displacement. One may read the inhibition as the percentage by which the read-out fell short of the control. The term EC50 denotes the midpoint of the concentration-response curve. Read a high EC50 as weaker potency. By Emax is commonly meant the size of the effect at its maximum, as opposed to the concentration needed.

Test [1] concerns the target α4β2 nAChR (Rattus norvegicus, UniProt P09483+P12390). The test can be described thus: [3H]-epibatidine competition binding on rat cortical membranes. The note with it: tested at 5 μM, ± standard error.
The target in test [2] is α7 nAChR (Rattus norvegicus, UniProt Q05941). Description: [3H]-methyllycaconitine competition binding on rat hippocampal membranes. The note with it: for Ki: read-out: α7 Ki, [3H]-methyllycaconitine, rat hippocampal membranes; for interaction with α7 nAChR: in words.
The target of test [3] is α3β4 ganglion-type nicotinic receptors (Homo sapiens, UniProt P30926+P32297). Description: [3H]-epibatidine competition binding on SH-SY5Y cellular membranes.
Test [4] addresses α1βγδ muscle-type nicotinic receptors (Homo sapiens, UniProt P02708+P07510+Q07001). The test can be described thus: [3H]-epibatidine competition binding on TE-671 cellular membranes. The note with it: tested at 5 μM, ± standard error.
In test [5] the test system is AChBP from Ac. The test can be described thus: Dissociation constants with AChBP from Aplysia californica. The class given is binding. The note with it: compound 2 vs compound 3 (OH to OCH3).
Test [6] has as its system AChBP from Bt. Description: Dissociation constants with AChBP from Bulinus truncatus. It is filed as binding. The note with it: compound 2 vs compound 3 (OH to OCH3).
Test [7] deals with rat α7 nAChR (Rattus norvegicus, UniProt Q05941). Description: Patch-clamp electrophysiology in rat α7 nAChR. The class given is cell-based.

“5-(2-Furyl)spiro[1,3-dihydro-1,4-diazepine-2,3′-quinuclidine]-7-ol [Compound 2g]”: the “α4β2 percent inhibition of control radioligand binding” value (“α4β2 percent inhibition” for short) in test [1] came to 14 ± 3%. In addition, the inhibition constant (Ki) in test [2] stood at 0.15 µM.

Consider “5-(2-Methoxyphenyl)spiro[1,3-dihydro-1,4-diazepine-2,3′-quinuclidine]-7-ol [Compound 2b]”, for which the “α4β2 percent inhibition” value in test [1] was found to be 7 ± 1%. Besides, the inhibition constant Ki in test [2] was 0.11 µM.

Take “5-(4-Methoxyphenyl)spiro[1,3-dihydro-1,4-diazepine-2,3′-quinuclidine]-7-ol [Compound 2d]”: the “α4β2 percent inhibition” value in test [1] is 42 ± 14%. The “α3β4 percent inhibition of control radioligand binding” value in test [3] (tested at 5 μM, [3H]-epibatidine, SH-SY5Y cellular membranes, ± standard error) came to 63 ± 0.4%. Further, the Ki in test [2] was 0.042 µM. Moreover, in test [4], the “α1βγδ percent inhibition of control radioligand binding” value was 38 ± 5%.

Regarding “5-Phenylspiro[1,3-dihydro-1,4-diazepine-2,3′-quinuclidine]-7-ol [Compound 2a]”, in test [1], the “α4β2 percent inhibition” value is 15 ± 1%. For the same molecule, the inhibition constant Ki in test [2] stood at 0.14 µM.

`COc1ccc(/C=C2\CCCN=C2c2cccnc2)c(OC)c1` [Compound 2, 3-(2,4-dimethoxybenzilidene)-anabaseine]: the “loss in affinity vs compound 3, Ac” value in test [5] amounted to 110 fold. For the same molecule, in test [6], the “decrease in Kd value (affinity) vs compound 3, Bt” value was found to be 2.5 fold.

`C1=NCC2(CN3CCC2CC3)NC=C1c1ccccc1` (stereo not shown) [Compound 2h, 6-phenylspiro[1,3-dihydro-1,4-diazepine-2,3′-quinuclidine]]: the “interaction with α7 nAChR” value in test [2] is “do not demonstrate any interaction”.

`O=C1NCC2(CN3CCC2CC3)NC(=O)C1c1ccccc1` (stereo not shown) [Compound 2i, 6-Phenylspiro[1,4-diazepane-2,3′-quinuclidine]-5,7-dione]: the “interaction with α7 nAChR” value in test [2] is listed as “do not demonstrate any interaction”.

In the case of `COc1cc(O)ccc1/C=C1\CCCN=C1c1cccnc1` [Compound 3, 2-Methoxy-4-OH benzylidene anabaseine, reference compound], the inhibition at 5 µM in test [3] (read-out: α3β4 percent inhibition of control radioligand binding) worked out at 75 ± 1%.

In test [7], `Oc1c(C2=NC3(CN2)CN2CCC3CC2)oc2ccccc12` (stereo not shown) [Compound 3a, 2-(3-Hydroxybenzofuran-2-yl)spiro[1,5-dihydroimidazole-4,3′-quinuclidine]] came in with an EC50 of 0.6 ± 0.5 µM and an Emax of 53 ± 4.4%.

Consider `c1ccc(C2=NC3(CN2)CN2CCC3CC2)cc1` (stereo not shown) [Compound 3c], for which the “interaction with α7 nAChR” value in test [2] is “do not demonstrate any interaction”.

As to `c1ccc2oc(C3=NC4(CN3)CN3CCC4CC3)cc2c1` (stereo not shown) [Compound 3e, 2-Spiro[1,5-dihydroimidazole-4,3′-quinuclidine]-2-ylbenzo [b]furan], the “interaction with α7 nAChR” value in test [2] was “do not demonstrate any interaction”.
